Experimental data published in patent US20050054696A1, “Indole compounds and medicinal use thereof” (priority 2001, published 2005).

Target: T1, recombinant human liver glycogen phosphorylase (HLGPa) (Homo sapiens, UniProt P06737)
T1 construct: made in house; host or cells: Sf9 insect cells (unpurified cell lysate used as enzyme solution)
T1 sequence (P06737 1-847): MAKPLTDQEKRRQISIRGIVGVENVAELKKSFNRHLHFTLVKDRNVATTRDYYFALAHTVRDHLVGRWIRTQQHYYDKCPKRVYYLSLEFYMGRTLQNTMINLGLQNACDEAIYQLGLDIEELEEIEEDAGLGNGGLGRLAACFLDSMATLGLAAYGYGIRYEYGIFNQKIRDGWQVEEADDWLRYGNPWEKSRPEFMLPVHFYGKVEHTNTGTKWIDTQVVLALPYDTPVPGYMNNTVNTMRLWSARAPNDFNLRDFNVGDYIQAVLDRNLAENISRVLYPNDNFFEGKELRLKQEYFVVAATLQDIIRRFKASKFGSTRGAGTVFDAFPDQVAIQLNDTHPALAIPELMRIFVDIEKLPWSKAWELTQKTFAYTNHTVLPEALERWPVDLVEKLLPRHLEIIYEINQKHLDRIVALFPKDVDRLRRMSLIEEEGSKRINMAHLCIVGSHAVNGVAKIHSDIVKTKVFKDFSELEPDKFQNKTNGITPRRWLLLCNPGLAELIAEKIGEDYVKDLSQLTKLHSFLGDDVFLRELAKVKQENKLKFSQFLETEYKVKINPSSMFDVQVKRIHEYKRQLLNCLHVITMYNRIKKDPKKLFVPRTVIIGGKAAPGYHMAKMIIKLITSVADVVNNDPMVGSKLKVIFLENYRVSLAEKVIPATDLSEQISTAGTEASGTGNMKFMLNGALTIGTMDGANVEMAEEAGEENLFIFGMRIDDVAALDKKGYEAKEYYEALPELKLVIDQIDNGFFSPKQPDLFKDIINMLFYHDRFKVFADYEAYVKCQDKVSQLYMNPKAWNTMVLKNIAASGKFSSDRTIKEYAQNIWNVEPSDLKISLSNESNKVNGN
Assay: Measurement of liver glycogen phosphorylase activity (enzyme inhibitory activity against HLGPa)
Type: biochemical
Details: Sf9 cell lysate expressing recombinant enzyme; reverse reaction (glycogen synthesis from G1-P), phosphate by malachite green, 60 min room temperature
Description: Measurement Method of Liver Glycogen Phosphorylase Activity
The measurement of the glycogen phosphorylase activity was performed by measuring the concentration of phosphoric acic produced by a reverse reaction, that is, a reaction wherein the glycogen phosphorylase synthesizes glycogen from G1-P. A cell lysate of Sf9 cells that forcibly expressed recombinant human liver glycogen phosphorylase was diluted to a protein amount of 80 μg/mL with 1 mM imidazole-hydrochloric acid buffer (pH 7.0, containing 0.2 mM PMSF, 250 mM NaCl, 0.025% BSA) and the dilute cell lysate was used as an enzyme solution of human liver glycogen phosphorylase. As a substrate solution, 25 mM Tris-HCl buffer (pH 7.2, containing 250 mM KCl, 6.25 mM MgCl2, 6.25 mM EGTA, 1.25 mM glucose-1-phosphate, 2.5 mg/ml glycogen, 7.5 mM glucose) was used. The test drug was dissolved in 0.5% dimethyl sulfoxide (DMSO). To a mixture of the test drug (10 μl) and the substrate solution (20 μl) was added an enzyme solution (20 μl) to start the enzyme reaction. As a control, 0.5% DMSO was added instead of the test drug. One free of addition of enzyme was used as a blank. The mixture was reacted at room temperature for 60 min, and a malachite green solution (50 μl) was added. The mixture was further reacted at room temperature for 20 min and absorbance at 650 nm was measured. An enzyme solution was added to the blank simultaneously with the malachite green solution and the measurement was done in the same manner. The percent inhibition (%) of the test drug was calculated from ((value of control−value of the test drug)/(value of control−value of blank))×100 (%).

Structure (SMILES)	IC50 [nM]
O=C(NNC(=O)c1cccc2ccccc12)c1cc2cc(Cl)ccc2[nH]1 [Example 1-92, 5-chloro-1H-indole-2-carboxylic acid 2-(naphthalene-1-carbonyl)hydrazide]	71
Cc1cccc(N)c1C(=O)NNC(=O)c1cc2cc(Cl)ccc2[nH]1 [Example 1-98, 2-amino-6-methylbenzoic acid 2-(5-chloro-1H-indole-2-carbonyl)hydrazide]	87
Cc1cccc(C(=O)NNC(=O)c2cc3cc(Cl)ccc3[nH]2)c1N [Example 1-99, 2-amino-3-methylbenzoic acid 2-(5-chloro-1H-indole-2-carbonyl)hydrazide]	10
Nc1ccsc1C(=O)NNC(=O)c1cc2cc(Cl)ccc2[nH]1 [Example 1-101, 3-aminothiophene-2-carboxylic acid 2-(5-chloro-1H-indole-2-carbonyl)hydrazide]	35
Nc1ccccc1C(=O)NNC(=O)c1cc2cc(Br)ccc2[nH]1 [Example 1-102, 2-aminobenzoic acid 2-(5-bromo-1H-indole-2-carbonyl)hydrazide]	> 100
O=C(NNC(=O)c1cc2cc(Cl)ccc2[nH]1)c1cn[nH]c1 [Example 1-104, 1H-pyrazole-4-carboxylic acid 2-(5-chloro-1H-indole-2-carbonyl)hydrazide]	21
COC(=O)Nc1ccccc1C(=O)NNC(=O)c1cc2cc(F)ccc2[nH]1 [Example 1-105, methyl (2-(2-(5-fluoro-1H-indole-2-carbonyl)hydrazinocarbonyl)phenyl)carbamate]	87

Continued, values first:

IC50 [nM]	Structure (SMILES)
28	O=C(NNC(=O)c1sccc1Cl)c1cc2cc(Cl)ccc2[nH]1 [Example 1-86, 3-chlorothiophene-2-carboxylic acid 2-(5-chloro-1H-indole-2-carbonyl)hydrazide]
56	Cn1cccc1C(=O)NNC(=O)c1cc2cc(Cl)ccc2[nH]1 [Example 1-87, 1-methyl-1H-pyrrole-2-carboxylic acid 2-(5-chloro-1H-indole-2-carbonyl)hydrazide]
450	Cc1ccsc1C(=O)NNC(=O)c1cc2cc(Cl)ccc2[nH]1 [Example 1-89, 3-methylthiophene-2-carboxylic acid 2-(5-chloro-1H-indole-2-carbonyl)hydrazide]
56	O=C(NNC(=O)c1cccc(F)c1F)c1cc2cc(Cl)ccc2[nH]1 [Example 1-91, 2,3-difluorobenzoic acid 2-(5-chloro-1H-indole-2-carbonyl)hydrazide]
270	O=C(NNC(=O)c1cc2cc(Cl)ccc2[nH]1)c1cc(F)c(F)c(F)c1 [Example 1-93, 3,4,5-trifluorobenzoic acid 2-(5-chloro-1H-indole-2-carbonyl)hydrazide]
520	O=C(NNC(=O)c1cc(F)c(F)c(F)c1F)c1cc2cc(Cl)ccc2[nH]1 [Example 1-94, 2,3,4,5-tetrafluorobenzoic acid 2-(5-chloro-1H-indole-2-carbonyl)hydrazide]
280	Cc1ccc(C(=O)NNC(=O)c2cc3cc(Cl)ccc3[nH]2)c(N)c1 [Example 1-95, 2-amino-4-methylbenzoic acid 2-(5-chloro-1H-indole-2-carbonyl)hydrazide]
10	Cc1ccc(N)c(C(=O)NNC(=O)c2cc3cc(Cl)ccc3[nH]2)c1 [Example 1-97, 2-amino-5-methylbenzoic acid 2-(5-chloro-1H-indole-2-carbonyl)hydrazide]
240	Nc1cc(F)c(F)cc1C(=O)NNC(=O)c1cc2cc(Cl)ccc2[nH]1 [Example 1-100, 2-amino-4,5-difluorobenzoic acid 2-(5-chloro-1H-indole-2-carbonyl)hydrazide]
28	Nc1cc(F)ccc1C(=O)NNC(=O)c1cc2cc(Br)ccc2[nH]1 [Example 1-103, 2-amino-4-fluorobenzoic acid 2-(5-bromo-1H-indole-2-carbonyl)hydrazide]
78	Cc1ccc2[nH]c(C(=O)NNC(=O)c3cccn3C)cc2c1 [Example 1-106, 1-methyl-1H-pyrrole-2-carboxylic acid 2-(5-methyl-1H-indole-2-carbonyl)hydrazide]
